The values below come from paper PMC6749521, “The Effect of Flavonoid Aglycones on the CYP1A2, CYP2A6, CYP2C8 and CYP2D6 Enzymes Activity” (Molecules, 2019).

Molecules are shown by their SMILES. Like-named read-outs stand apart in the source and are kept apart here.

The test system of series [1] is CYP3A4. Also on record: method as in PMID 30301254. To be noted: statistical significance p < 0.1; cited from earlier work.
Series [2] relates to rat liver microsomes. Also on record: method as in ref 24 (Siess et al.). The note with it: ref 24 (Siess et al.), cited from earlier work.
Series [3] has as its target T1, CYP1A2 (Homo sapiens, UniProt P05177).
T1 sequence (P05177 1-516): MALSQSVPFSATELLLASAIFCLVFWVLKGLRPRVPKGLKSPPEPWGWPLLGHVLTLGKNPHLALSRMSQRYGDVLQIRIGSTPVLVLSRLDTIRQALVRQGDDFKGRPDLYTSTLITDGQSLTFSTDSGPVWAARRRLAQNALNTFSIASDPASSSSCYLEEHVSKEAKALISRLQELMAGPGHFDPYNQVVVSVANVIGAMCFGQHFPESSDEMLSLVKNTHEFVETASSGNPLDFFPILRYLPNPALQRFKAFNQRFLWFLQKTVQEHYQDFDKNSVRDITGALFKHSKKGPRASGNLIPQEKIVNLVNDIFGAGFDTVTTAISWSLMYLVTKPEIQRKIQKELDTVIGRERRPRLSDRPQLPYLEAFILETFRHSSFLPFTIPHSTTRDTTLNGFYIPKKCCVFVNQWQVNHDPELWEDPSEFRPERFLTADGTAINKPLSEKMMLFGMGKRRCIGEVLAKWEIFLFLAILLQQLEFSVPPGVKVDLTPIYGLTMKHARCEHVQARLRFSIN
The series can be described thus: CYP1A2 enzyme activity, phenacetin O-deethylation (MDI, TDI, DI assays), recombinant baculosomes. The note with it: 1 µM flavonoid. On the procedure:
(§1) The recombinant baculosomes with hyperexpressed cytochromes P450 (1A2, 2A6, 2C8, and 2D6) and coexpressed NADPH cytochrome P450 reductase and cytochrome b5 were used as a source of enzyme. Baculosomes were commercially obtained from Thermo Fisher Scientific (Waltham, MA, USA), and all other chemicals from Sigma-Aldrich if not otherwise indicated. A 1.0 M solution phosphate buffer of pH 7.4 was prepared in house. NADPH generating system was prepared of 0.1 M glucose-6-phosphate, 10 mg mL^−1 NADP^+, and 1000 IU mL^−1 glucose-6-phosphate dehydrogenase in ratio 100:50:2 (v/v/v).
Phenacetine O-deethylation was used as a marker reaction for monitoring CYP1A2 enzyme activity (Figure 2). Incubations of 100 µL were conducted at the temperature of 37 °C. The pH of the incubation mixture was set at 7.4 using a potassium phosphate buffer (final concentration 50 mM). The total amount of CYP1A2 enzyme was 5 pmol, and the final concentration of substrate was 150 µM. Residual activity was determined by incubating the flavonoid (1 µM) with phenacetine as a substrate for 15 min, with or without preincubation, depending of the type of inhibition assay. Reactions were started by the addition of 15 µL of NADPH generating system, while the reactions were stopped by the addition of 1 mL 1% formic acid in acetonitrile. After centrifugation (10 min, 1900× g), the clear solution was transferred to a vial for HPLC analysis.
HPLC analysis was performed on Agilent 1100 instrument (Santa Clara, CA, USA) coupled with a diode array detector (DAD) on Luna C18 column (4.6 × 150 mm, 3 μm). The gradient method was used for separation. Mobile phase A consisted of water, acetonitrile, and glacial acetic acid in the volume ratio of 90:10:0.1, while mobile phase B contained the same solvents in the ratio 10:90:0.1. The following gradient timetable was used (t/min, %B): (0, 0), (2, 0), (13, 55), (14, 0), (20, 0). The flow rate was 1 mL/min, and chromatograms were recorded at 254 nm. Volume of incubation injected to the column was 15 µL. […] The amount of generated product (acetaminophen) was determined as the area under the curve based on the calibration curve of the standard.
(§2) Three types of experiments were conducted to determine metabolism dependent inhibition, time dependent inhibition, and direct inhibition of CYP1A2, CYP2A6, CYP2C8, and CYP2D6 enzymes.
(§3) To determine metabolism dependent inhibition (MDI assay), the flavonoid was first preincubated with the enzyme with the addition of the generating system for 30 min, after which the marker substrate was added to determine residual enzyme activity (as described above for each enzyme).
(§4) If metabolism dependent inhibition was determined, time dependent inhibition and direct inhibition were tested. Time dependent inhibition (TDI assay) was assessed by preincubating the flavonoid and enzyme, without the generating system, after which residual activity was determined by adding the NADPH generating system along with the substrate (as described above for each enzyme).
(§5) The direct inhibition assay (DI assay) was conducted without preincubation, i.e., the NADPH generating system was added to the incubation mixture containing flavonoid and substrate following the experimental set-up described above for each individual cytochrome P450 enzyme.
(§6) Pure time dependent inhibitors require time to interact with the enzyme. Thus, TDI inhibitors will show a reduction of enzyme activity in assays with preincubations, i.e., the MDI and TDI assays, but not in the DI assay (no preincubation). […] DI inhibitors will reduce enzyme activity in all three assays (MDI, TDI, and DI).
All incubations were conducted in triplicate. The results are expressed as the residual activity of the enzyme, i.e., the percentage of product generated in incubation with the addition of flavonoid in ratio to the control without flavonoid.

For series [4], the target named is T2, CYP2C8 (Homo sapiens, UniProt P10632).
T2 construct: purchased Thermo Fisher Scientific; host or cells: baculosomes
T2 sequence (P10632 1-490): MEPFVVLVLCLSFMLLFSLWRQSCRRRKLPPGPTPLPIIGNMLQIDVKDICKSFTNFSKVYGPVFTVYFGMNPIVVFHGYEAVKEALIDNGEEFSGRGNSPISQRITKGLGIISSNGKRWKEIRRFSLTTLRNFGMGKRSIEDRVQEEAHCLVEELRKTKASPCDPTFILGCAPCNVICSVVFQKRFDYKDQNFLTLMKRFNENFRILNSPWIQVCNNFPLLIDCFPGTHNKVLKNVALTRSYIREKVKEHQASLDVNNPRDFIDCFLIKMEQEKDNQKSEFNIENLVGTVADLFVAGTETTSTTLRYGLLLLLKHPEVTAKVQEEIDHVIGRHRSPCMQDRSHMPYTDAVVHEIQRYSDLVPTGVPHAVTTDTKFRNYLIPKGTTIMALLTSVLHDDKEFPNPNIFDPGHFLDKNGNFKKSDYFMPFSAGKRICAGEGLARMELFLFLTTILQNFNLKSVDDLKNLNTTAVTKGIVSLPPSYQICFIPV
The series can be described thus: CYP2C8 enzyme activity, paclitaxel 6α-hydroxylation (MDI, TDI, DI assays), recombinant baculosomes. Type of series: biochemical. To be noted: for Inhibition of CYP2C8 paclitaxel 6-α-hydroxylation / CYP2C8 enzyme activity in the TDI assay: 1 µM flavonoid; for Type of CYP2C8 inhibition: concluded from MDI, TDI, DI assays at 1 µM. On the procedure: as §1
Paclitaxel 6α-hydroxylation was used as a marker reaction for monitoring CYP2C8 enzyme activity (Figure 2). The incubation conditions were the same as for CYP1A2 enzyme (vide supra) unless otherwose stated. The final concentration of paclitaxel was 20 µM, while the incubation time was set to 30 min.
HPLC-DAD analysis was conducted on the same system as the CYP1A2 enzyme with the following modifications: The gradient timetable (t/min, %B) was (0, 50), (2, 50), (10, 90), (11, 50), (17, 50), and the detection wavelength was 227 nm. […] The amount of generated product was determined as the area under the curve based on the calibration curve of the standard.
as §2, §3, §4, §5, §6
(§7) All incubations were conducted in triplicate. The results are expressed as the residual activity of the enzyme, i.e., the percentage of product generated in incubation with the addition of flavonoid in ratio to the control without flavonoid. The statistical significance was tested with Student’s t-test in the program R (The R Project for Statistical Computing, Vienna, Austria).

In series [5] the target is T3, CYP2A6 (Homo sapiens, UniProt P11509).
T3 sequence (P11509 1-494): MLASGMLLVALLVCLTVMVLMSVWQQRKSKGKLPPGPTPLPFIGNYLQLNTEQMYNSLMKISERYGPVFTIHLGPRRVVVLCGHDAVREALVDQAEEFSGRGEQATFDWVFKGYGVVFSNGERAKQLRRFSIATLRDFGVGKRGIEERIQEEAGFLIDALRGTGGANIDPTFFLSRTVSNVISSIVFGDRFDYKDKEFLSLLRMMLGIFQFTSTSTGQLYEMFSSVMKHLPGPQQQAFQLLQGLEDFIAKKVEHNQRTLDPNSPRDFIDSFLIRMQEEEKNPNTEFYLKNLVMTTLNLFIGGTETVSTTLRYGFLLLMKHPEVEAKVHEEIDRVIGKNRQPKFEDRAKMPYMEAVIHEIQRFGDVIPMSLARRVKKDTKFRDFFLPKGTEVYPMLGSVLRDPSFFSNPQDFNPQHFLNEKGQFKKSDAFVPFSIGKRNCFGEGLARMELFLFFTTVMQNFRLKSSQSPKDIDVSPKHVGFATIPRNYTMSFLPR
The series can be described thus: CYP2A6 enzyme activity, coumarin 7-hydroxylation (MDI, TDI, DI assays), recombinant baculosomes. To be noted: for Inhibition of CYP2A6 enzyme activity / activity at 30 min, 1 µM: 1 µM flavonoid; for activity at 30 min, 1 µM: human, pH 7.4, probe coumarin (7-hydroxylation), 10 µM, Residual CYP2A6 enzyme activity. The procedure:
as §1
The aromatic hydroxylation of coumarin at the position 7 was used as a marker reaction for CYP2A6. The incubation conditions were the same as for CYP1A2 enzyme (vide supra) unless otherwise stated. The final concentration of coumarin was 10 µM, while the incubation time was extended to 30 min.
HPLC-DAD analysis was conducted on the same system as the CYP1A2 enzyme with the following modifications: The gradient timetable (t/min, %B) was (0, 20), (1.5, 20), (10, 70), (11, 20), (17, 20), and the detection wavelength was 330 nm. The retention time of the substrate (coumarin) was 7.5 min, while the product (7-hydroxycoumarin) was detected at 4.8 min. The amount of generated product was determined as the area under the curve based on the calibration curve of the standard.
as §2, §3, §4, §5, §6, §7

Series [6] has as its system CYP2A6. To be noted: ref 31 (Boonruanga et al.), cited from earlier work.

Regarding `O=c1cc(-c2ccccc2)oc2ccccc12` [flavone], in series [1], the “Inhibition of CYP3A4 metabolic activity” value was “inhibition”.

Turning to `O=c1c(O)c(-c2ccc(O)cc2O)oc2cc(O)cc(O)c12` [morin], in series [2] (morin versus chrysin), the “Inhibition constant relative to chrysin” value was 16 fold. Also, the Ki in series [2] (read-out: Inhibition constant, ethoxy- and pentoxy-resorufin dealkylation) is 5000 nM. Also, in series [2], the “Type of inhibition of ethoxy- and pentoxy-resorufin dealkylation” value is “mix type reversible”. Moreover, the “Inhibition of CYP3A4 metabolic activity” value in series [1] is “inhibition”. For the same compound, in series [3], the “Inhibition of CYP1A2 activity” value is “inhibited”.

For `O=c1c(O)c(-c2ccccc2)oc2cc(O)cc(O)c12` [galangin], in series [4], the “Inhibition of CYP2C8 paclitaxel 6-α-hydroxylation” value is “inhibition”; the “CYP2C8 enzyme activity in the TDI assay” value was “reduction of enzyme activity was not observed”; the “Type of CYP2C8 inhibition” value was “mixed reversible and irreversible inhibitors”. The “Inhibition of CYP3A4 metabolic activity” value in series [1] is listed as “inhibition”. Also, the “Inhibition of CYP2A6 enzyme activity” value in series [5] was “inhibited”.

On to `O=C1C[C@@H](c2ccccc2)Oc2cc(O)cc(O)c21` [pinocembrin], for which the “Inhibition of CYP3A4 metabolic activity” value in series [1] is recorded as “inhibition”.

As for `COc1ccc(-c2cc(=O)c3c(OC)c(OC)c(OC)c(OC)c3o2)cc1` [tangeretin], in series [1], the “Inhibition of CYP3A4 metabolic activity” value is “inhibition”. Moreover, the “Inhibition of CYP2A6 enzyme activity” value in series [5] is reported as “inhibited”. Besides, the “Type of CYP2A6 inhibition” value in series [5] (concluded from MDI, TDI, DI assays at 1 µM) is recorded as “direct inhibitor”.

As to `COc1ccc(-c2oc3cc(O)cc(O)c3c(=O)c2O)cc1O` [tamarixetin], the “Inhibition of CYP3A4 metabolic activity” value in series [1] was “inhibition”.

Turning to `COc1ccc(-c2cc(=O)c3c(O)cc(O)cc3o2)cc1` [acacetin], the “Inhibition of CYP3A4 metabolic activity” value in series [1] is given as “inhibition”.

For the compound `COc1ccc([C@@H]2CC(=O)c3c(O)cc(O)cc3O2)cc1O` [hesperetin], the “Inhibition of CYP3A4 metabolic activity” value in series [1] is recorded as “inhibition”.

For the compound `COc1cc(OC)c2c(=O)cc(-c3ccccc3)oc2c1` [chrysin-dimethylether], in series [4], the “Inhibition of CYP2C8 paclitaxel 6-α-hydroxylation” value is “inhibition”; the “CYP2C8 enzyme activity in the TDI assay” value is given as “reduction of enzyme activity was not observed”; the “Type of CYP2C8 inhibition” value was “mixed reversible and irreversible inhibitors”. In addition, the “Inhibition of CYP3A4 metabolic activity” value in series [1] is reported as “inhibition”.

Turning to `O=c1cc(-c2ccc(O)cc2)oc2cc(O)cc(O)c12` [apigenin], the IC50 is 900 ± 70 nM in series [6] (read-out: IC50, direct inhibition assay) and 770 ± 160 nM in series [6] (read-out: IC50, metabolism dependent inhibition assay). For the same compound, the “Inhibition of CYP2A6 enzyme activity” value in series [5] is “inhibited”. Besides, the activity at 30 min, 1 µM in series [5] (direct inhibition (DI) assay) was found to be 48 ± 1%; in series [5] (metabolism dependent inhibition (MDI) assay, coumarin 10 µM) it was 47 ± 7%.

A word on the IC50: it is the concentration that inhibits the measured activity by half.
